Measurements reported in US20230126411A1, “DEUTERIUM MAGNETIC RESONANCE IMAGING” (University of Florida Research Foundation, Inc., priority 2020, published 2023).

Experiments:
[1] = T1 inversion recovery NMR of lactate isotopomers, HDO and standards in cell media; assay type: physicochemical; details: 25° C., cell medium; for deuterium T1 relaxation time: 2H-NMR 92.13 MHz; for proton T1 relaxation time: 1H-NMR 600.23 MHz, 2H-decoupling on
Experimental: (§1) All NMR spectra were recorded on a 600.23 MHz NMR, equipped with a 1.7 mm TCI CryoProbe and Avance Neo Console (Bruker Biospin). All NMR experiments were set up in the lock off followed by sweep off mode. ^2H-decoupling off and on ^1H-NMR spectra were acquired with a sequence that alternated decoupling with each scan. Relaxation delay (d1) of 1.5s and acquisition time (AQ) of 2s (3.5s of recycling time, Tr) and a 90° pulse of 10.50 μs was used for acquisition of each of the spectra. The WET method containing selective pulses was applied on the strong water resonance (M o, H. & Raftery, D. J. Biomol. NMR 2008 41:105-111). Waltz16 ^2H-decoupling sequence consists of 90° pulse of 250 μs with decoupling power of 1.72watts, producing B, of 1 kHz during the acquisition period. 13,157 complex data points were acquired with the spectral width of 11 ppm. 128 scans were used to acquire each spectrum. 4 dummy scans were also used for equilibration of the spin states prior to acquisition. A modified T1 inversion recovery pulse sequence with ^2H-decoupling on during the acquisition was used to measure the T1 of the lactate isotopomers and pyrazine standard. Relaxation delay (d1) of 50s and inversion recovery delays (T) of 0.001, 0.6, 0.9, 1.5, 2.0, 3.0, 6.0, 9.0, 14.0, 20.0, 30.0 and 40.0s were used to determine the T1 of lactate isotopomers.
(§2) The deuterium lock channel was used to acquire the ^1H-decoupled ^2H-NMR spectrum at 92.13 MHz resonant frequency. Relaxation delay (d1) of 2s and acquisition time (AQ) of 1s (3s of recycling time, Tr) with a 90° pulse was used to acquire each of the ^2H-NMR spectra. 1086 complex data points were digitized with the spectral width of 11 ppm using 1024 scans for each of the 5 FIDs (5120 scans) for each of the samples. T1 inversion recovery pulse sequence was used to calculate the T1 relaxation times of HDO and pyrazine-D4 standard. Relaxation delay (d1) of 5s, acquisition time (AQ) of 1s and inversion recovery delays (T) of 0.001, 0.1, 0.4, 0.8, 1.6, and 3.2s were used to acquire an array of FIDs to calculate the T1 of HDO and pyrazine-D4. All NMR experiments were carried out at the room temperature (25° C.). ^1H-NMR Data Processing and Quantification of Lactate Isotopomers
Once the lactate isotopomers were identified, it would be expected to observe differential changes in T1 due to a loss of ^1H dipolar relaxation. T1 inversion recovery experiments were performed in the ^2H-decoupling on mode to calculate the T1 relaxation time of the pyrazine and lactate isotopomers. […] A and B marks on the uppermost spectrum represent the pyrazine standard and methyl signals of the lactate isotopomers respectively. Integral areas of each of the lactate isotopomers and pyrazine standard were extracted to calculate the T1 relaxation times. Data was fit to the standard T1 equation, Mz(t)=M0(1-2*^T/T1), to extract the T1s. […] T1 relaxation time of the HDO and pyrazine-D4 standard were calculated using the inversion recovery ^2H-NMR data (FIG. 10) and found to be 0.49s and 0.45s respectively.

rat brain = assay: Deuterium MR spectroscopy of rat brain and plasma 2H NMR after tail vein infusion of [2H7]glucose
Source text: All experimental procedures were approved by the University of Florida Institutional Animal Care and Use Committee. Female Sprague Dawley rats (body weight: ˜220 g) were purchased from Jackson Laboratories and acclimatized in the University's animal care facilities. All rats were in the fed state. The rat was anesthetized with 2% isoflurane in a mixture of O2 and N2 gases. The tail vein was catheterized using a 23-gauge needle for the infusion of [^2H7]glucose tracer. The body temperature of the rat was maintained at 37° C. using a heated circulating water pad. The respiratory rate was monitored during the entire period of the experiment. After shimming the magnet, three baseline ^2H spectra were acquired. Subsequently, a 2 minute tail vain infusion of [^2H7]glucose (1.95 g/kg body weight and dissolved in 2.3 mL saline) was administered. Blood was drawn after the end of spectroscopy and imaging experiments via saphenous vein and blood plasma was separated by centrifugation of the blood at 4° C. for 10 minutes. Circulating blood glucose was assessed by a blood draw and glucometer (Evancare, Medline Industries, Northfield, IL) prior to infusion and 3 hours after the glucose injection.
Animal experiments were performed on an 11.1 T Magnex magnet (Magnex Scientific Ltd.) interfaced to a BrukerAvance Ill HD console running on ParaVision 6.0.1 (Bruker Instruments, Billerica, Mass.). The MRI system was equipped with RRI BFG-240/120-S6 gradient coil with the bore size of 120 mm and capable of producing 100 mT/m with 200 μs rise time. A shim map was generated for localized shimming on rat brain using an 85 mm home-built, actively-decoupled, linear volume ^1H transmit-receive coil. The coil was tuned to the ^1H NMR frequency at 470 MHz. A home-built 14 mm diameter, circular surface coil tuned to 72.26 MHz was used to acquire ^2H spectra and images.
The ^2H coil was placed over the rat head and a 3D printed phantom containing approximately 200 μl of natural abundance water was placed on the top of the coil to confirm positioning. The ^2H RF pulse and flip angle were optimized to maximize the ^2H signals from the rat brain. A partial signal contribution from the natural abundance ^2H of the water phantom was unavoidable but was accounted for by subtraction of the signal areas from runs that followed the glucose injection. […] Spectra were acquired with a 1 kHz width and 256 data points for each free induction decay (FID), a repetition time of 300 ms, and a flip angle of 60° with 256 averages. The total acquisition time for each spectrum was 1.28 minutes. A total of 30 spectra were acquired for a 38-minute time period. Two additional ^2H NMR spectra from the rat brain were acquired at 2 hours and 2.5 hours following [^2H7]glucose infusion. Pyrazine-D4 (2.5 mM, internal standard) was added in each plasma sample to calculate the HDO concentration in plasma. ^2H NMR spectra were collected on Bruker 14 T NMR magnet system equipped with a 1.7 mm TCl CryoProbe and Avance Neo console (Bruker BioSpin). ^2H NMR spectra of plasma samples were acquired at 92.13 MHz resonant frequency with an acquisition time of 1.0 s, relaxation delay of 2 s, and 3072 scans.
^2H NMR data analysis was performed using MestReNova v14.0.1-23284 (Mestrelab Research S. L., Santiago, Spain). For processing of the ^2H NMR, each spectrum was Fourier transformed with an exponential window function of 2.0 Hz, zero-filling of 512 data points and automatic phase correction was also applied. Peak areas were extracted for HDO, [^2H7]glucose including the anomeric signal, deuterated glx (glutamate/glutamine) and lactate from the ^2H NMR spectra of the rat brain. 2D ^1H and ^2H images were processed in the ImageJ software (NIH, Bethesda, Md.).

AML12 cells = assay: [2H7]glucose consumption, lactate isotopomer and HDO production in cell media by 1H/2H-NMR; assay type: cell-based; details: for concentration of consumed [2H7]glucose / produced lactate isotopomers and HDO in cell media: 5.5 mM [2H7]glucose; for number of μmol of 2H: 2H mass balance
Experimental: (§3) HUH-7 or AML12 cell lines were cultured in a complete growth medium made up of Dulbecco's Modified Eagle Medium (DMEM) with 10% v/v FBS, 10,000 units/mL penicillin, 10,000 μg/mL streptomycin, 25 μg/mL amphotericin B and 5.5 mM [^2H7]glucose. Cell lines were maintained at 37° C. in a 5% CO2 in air atmosphere in an air-jacketed incubator (Heracell Vios 160i, Thermo Scientific, Waltham, Mass.). Growth media was replaced every 3 days, and subcultured 1:5 at 80% confluence. 25 cm^2 cell culture plates, containing 15 million HUH-7 or AML12 cells at 70-80% confluence, were washed once with warm PBS and incubated with 4 mL each of DMEM with deuterated tracer for 5h, withdrawing 100 μL aliquots at 20 min, 1h, 2h, and 5h.
(§4) No extraction was performed on the cell media samples. Pyrazine and pyrazine-D4 were mixed to achieve 5 mM concentration of each of the standards in each cell media samples of HUH-7 and AML12 cells. Pyrazine and pyrazine-D4 served as an internal standard to quantify the lactate isotopomers from ^1H-NMR data and HDO as well as residual [^2H7]glucose from ^2H-NMR data respectively. 40 μL of cell medium was transferred into 1.7 mm NMR tubes for NMR analysis. ^1H-NMR Spectroscopy
as §1, §2
(§5) For processing of the ^1H-NMR spectrum, the spectra were zero-filled to 32,768 points with an exponential window function of 0.3 Hz before the Fourier Transform (FT). Manual phase and automatic spline baseline correction were performed on each of the spectra. ^2H-decoupled ^1H-NMR spectra of each time point were used for the extraction of the areas of lactate isotopomers. The MestReNova line fitting tool was used to extract the peak areas of the slightly overlapped signals for quantification of the lactate isotopomers. […]

[2] = system: HUH-7 hepatocellular carcinoma cells; assay: as above; assay type: cell-based; details: for concentration of consumed [2H7]glucose / produced lactate isotopomers and HDO in cell media: 5.5 mM [2H7]glucose; for number of μmol of 2H: 2H mass balance; for rate of production of lactate isotopomer: efflux into medium, linear regression over incubation time
Experimental: as §3, §4, §1, §2, §5

Row | Compound | concentration of consumed [2H7]glucose / produced lactate isotopomers and HDO in cell media (AML12 cells; 5 hour time point) [µmol/L] | number of μmol of 2H (AML12 cells; 5 hour time point) [µmol] | concentration of consumed [2H7]glucose / produced lactate isotopomers and HDO in cell media ([2]; 5 hour time point) [µmol/L] | number of μmol of 2H ([2]; 5 hour time point) [µmol] | proton T1 relaxation time [1] [s] | rate of production of lactate isotopomer [2] [micromol/10^6 cells/min] | other results
1 | [2H]O [HDO, hydrogen-deuterium oxide] | 2003.12 | 2003.12 | 18240.0 | 18240.0 |  |  | deuterium T1 relaxation time [1]: 0.49 s; final body water HDO enrichment (rat brain; rat blood plasma at end of experiment, n=4): 86.9 ± 5.16 mM; final estimated HDO concentration in brain (rat brain; rat brain, longer time points (2.5 hrs) post-[2H7]glucose infusion, N=3): approximately 48±10 mM; final HDO signal relative to natural abundance signal (rat brain; rat brain, longer time points post-infusion): approximately 3.5 ×; time range of pseudo-steady state of HDO (and HDO plus lactate) to glx ratios (rat brain; rat brain, post-[2H7]glucose infusion): 10 to 24 min; body water enrichment of HDO relative to brain concentration (rat brain; rat, final time point): approximately 1.8 ×
2 | [2H]CC(O)C(=O)O (stereo not drawn) [Lactate-CH2D] | 229.26 | 229.26 | 1520.0 | 1520.0 | 2.49 | 0.35 | 
3 | [2H]C([2H])C(O)C(=O)O (stereo not drawn) [Lactate-CHD2] | 353.07 | 706.14 | 2442.47 | 4884.9 | 4.21 | 0.57 | concentration of lactate-CHD2 relative to the -CH2D isotopomer ([2]; 5 hour time point): 1.6 fold
4 | CC(O)C(=O)O (stereo not drawn) [lactate-CH3] |  |  |  |  | 1.85 | 0.17 | 
5 | c1cnccn1 [pyrazine, Pyrazine, reference compound] |  |  |  |  | 6.45 |  | 
6 | [2H]c1nc([2H])c([2H])nc1[2H] [pyrazine-D4, Pyrazine-D4, reference compound] |  |  |  |  |  |  | deuterium T1 relaxation time [1]: 0.45 s
7 | [1,2,3,4,5,6,6-^2H7]-D-glucose [[^2H7]glucose, reference compound] | 586.52 | 4105.60 | 3650.0 | 25550.0 |  |  | fate of the glucose bolus in brain (rat brain; rat, in vivo): almost completely metabolized; time of peak delivery of [2H7]glucose into the brain (rat brain; rat, in vivo): approximately 10 minutes post infusion; final blood glucose concentration (rat brain; rat, 3 hours after injection of 1.95 g/kg [2H7]glucose, n=4): 7.1 ± 1.8 mM; Number of μmol of 2H in 2H-lactate & HDO (AML12 cells; 5 hour time point, sum): 2938.52 µmol; [2H7]glucose uptake and HDO and 2H-lactate production compared to HUH-7 (AML12 cells; qualitative): much lower; 2H atoms of [2H7]glucose incorporated into 2H-lactate and HDO ([2]; 2H mass balance at 5 hour time point): Approximately 96%; Number of μmol of 2H in 2H-lactate & HDO ([2]; 5 hour time point, sum): 24644.9 µmol; cellular [2H7]glucose uptake and HDO production rate compared to AML12 cells ([2]; qualitative, stacked 2H-NMR spectra): very high
